Data as given in ChEMBL document CHEMBL1156050, “Synthesis and evaluation of 9-aminoacridines derived from benzyne click chemistry” (Bioorg Med Chem Lett, 2009).

How the values were obtained:
HL-60 = experiment: Cytotoxicity against human HL60 cells; assay type: functional, cell-based
Nucleic Acid [1] = experiment: Binding affinity to DNA; assay type: nucleic-acid assay
Nucleic Acid [2] = experiment: Displacement of ethidium bromide from DNA by titration
[3] = Homo sapiens, HL-60, read-out: IC50

Compound | IC50 (HL-60; [3]) | log K (Nucleic Acid [1]) | C50 (Nucleic Acid [2]) | IC50 (HL-60; hl-60)
CN(C)CCNC(=O)c1ccc2c(NCCn3nnc4ccccc43)c3ccccc3nc2c1 | 262 µM | 6.54 | 12.1 µM | 
CN(C)CCNC(=O)c1ccc2c(NCCN=[N+]=[N-])c3ccccc3nc2c1 | 5.4 µM | 6.37 | 17.6 µM | 
CN1CCN(C(=O)c2cccc3c(NCCN=[N+]=[N-])c4ccccc4nc23)CC1 | 52 µM |  | > 200 µM | 
CN1CCN(C(=O)c2ccc3c(NCCN=[N+]=[N-])c4ccccc4nc3c2)CC1 | 45.7 µM |  | > 200 µM | 
CN(C)CCNC(=O)c1cccc2c(NCCN=[N+]=[N-])c3ccccc3nc12 | 0.72 µM | 6.49 | 13.6 µM | 
CN1CCN(C(=O)c2ccc3c(NCCn4nnc5ccccc54)c4ccccc4nc3c2)CC1 |  | 6.2 | 26.2 µM | Not Active
CN1CCN(C(=O)c2cccc3c(NCCn4nnc5ccccc54)c4ccccc4nc23)CC1 |  | 5.65 | 93.2 µM | Not Active
CN(C)CCNC(=O)c1cccc2c(NCCn3nnc4ccccc43)c3ccccc3nc12 | 23.4 µM | 6.14 | 30 µM | 
